Experimental data taken from PMC8984819, “Acetylene containing 2-(2-hydrazinyl)thiazole derivatives: design, synthesis, and in vitro and in silico evaluation of antimycobacterial activity against Mycobacterium tuberculosis” (RSC Advances, 2022).
Converted amounts (≈) assume the structure as drawn. Read-outs that look alike come from different tables or passages of the source.

Experiments:
[1] = test system: H37Rv strain of Mycobacterium tuberculosis; test: microbe, parasite or virus in culture; assay type: cell-based; details: for inhibition at 50 µg/mL / inhibition at 100 µg/mL / inhibition at 2 µg/mL: H37RV; for inhibition at 50 µg/mL / inhibition at 100 µg/mL / % Inhibition ± SD: LRP assay; for inhibition at 50 µg/mL / inhibition at 100 µg/mL: read-out: % Inhibition ± SD
in vitro = assay type: cell-based; details: human
Description: HEK293 cells were grown in DMEM media containing 10% FBS and L-glutamine–penicillin–streptomycin solution at 37 °C in 5% CO2 condition. To perform MTT assay, 96 well tissue culture plate was seeded with […] number of cells. After 16 hours of seeding, cells were successfully attached to the culture plate and were treated with the active chemical compounds dissolved in DMSO at different concentrations as follows: 25 μg ml^−1, 50 μg ml^−1, 75 μg ml^−1 and 100 μg ml^−1. The cells were also treated with the DMSO to exclude the solvent-induced toxicity and used as an internal control. After 48 hours post active chemical compounds treatment, the MTT assay was performed as described previously.[45] MG-132, a potent proteasomal inhibitor and an inducer of apoptosis[46,47] was used as a positive control in the assay. Wells with media lacking any cells were as used as a negative control in the assay.
Tetrazolium-based […] cytotoxicity (MTT) assay is an important method to evaluate the viability of cells and it was performed for all the active chemical compounds using HEK293. To illustrate the percentage cell viability, the HEK293 cells were incubated with different concentrations of all active chemical compounds for 48 h. The compounds showing the viability of less than 50% of the cells were considered cytotoxic compounds. We observed that maximum compounds (such as 7, 9, 10, 13 and 25) show more than 75% of the cell viability at the highest concentration i.e. 100 μg ml^−1 for 48 hours of the treatment. Similarly, other compounds (such as 5, 6, 22, 26 and 31) show 70% cell viability upon 48 hours of the treatment. […] MG-132, a potent proteasomal inhibitor and an inducer of apoptosis was used as a positive control in the assay.

[2] = Mycobacterium tuberculosis, 50 µg/ml, M. Tb H37Rv
[3] = Mycobacterium tuberculosis, 100 µg/ml, M. Tb H37Rv

Compound: C#CCOc1ccccc1/C=N/Nc1nc(-c2ccccc2)cs1 [Compound 7]
- inhibition at 50 µg/mL [1, 2]: 51.7 ± 1.54%
- viability at 48 h, 100 μg ml^−1 (in vitro): > 75%
- melting point: 183 to 185 °C

Compound: C#CCOc1ccc(Br)cc1/C=N/Nc1nc(-c2ccc(F)cc2)cs1 [Compound 26]
- inhibition at 50 µg/mL [1, 2]: 50.7 ± 1.52%
- inhibition at 100 µg/mL [1, 3]: 57.7 ± 1.73%
- viability at 48 h, 100 μg ml^−1 (in vitro): 70%
- melting point: 207 to 209 °C

Compound: C#CCOc1ccc(Br)cc1/C=N/Nc1nc(-c2ccc(Cl)cc2)cs1 [Compound 27]
- % Inhibition ± SD ([1]; 100 µg/ml, M. Tb H37Rv): 50%
- inhibition at 50 µg/mL [1, 2]: 38.1 ± 1.14%
- inhibition at 100 µg/mL [1, 3]: 52.7 ± 1.58%
- melting point: 209 to 211 °C

Compound: CO[C@H]1/C=C/O[C@@]2(C)Oc3c(C)c(O)c4c(O)c(c(/C=N/N5CCN(C)CC5)c(O)c4c3C2=O)NC(=O)/C(C)=C\C=C\[C@H](C)[C@H](O)[C@@H](C)[C@@H](O)[C@@H](C)[C@H](OC(C)=O)[C@@H]1C [RIF, rifampicin, reference compound]
- inhibition at 2 µg/mL ([1]; Mycobacterium tuberculosis): > 99%

Compound: C#CCOc1ccc(/C=N/Nc2nc(-c3ccccc3)cs2)cc1OCC [Compound 16]
- inhibition at 50 µg/mL [1, 2]: 40.5 ± 1.21%
- inhibition at 100 µg/mL [1, 3]: 48.7 ± 1.46%

Compound: C#CCOc1ccc(/C=N/Nc2nc(-c3ccc(Cl)c(Cl)c3)cs2)cc1OCC [Compound 19]
- inhibition at 50 µg/mL [1, 2]: 2.38 ± 0.07%
- inhibition at 100 µg/mL [1, 3]: 7.21 ± 0.21%
- melting point: 153 to 155 °C

Compound: C#CCOc1ccccc1/C=N/Nc1nc(-c2ccc(F)cc2)cs1 [Compound 8]
- inhibition at 50 µg/mL [1, 2]: 38 ± 1.14%
- melting point: 180 to 182 °C

Compound: C#CCOc1ccc(Br)cc1/C=N/Nc1nc(-c2ccc(OC)cc2)cs1 [Compound 32]
- inhibition at 50 µg/mL [1, 2]: 43.7 ± 1.31%
- inhibition at 100 µg/mL [1, 3]: 48.7 ± 1.46%
- melting point: 184 to 187 °C

Compound: C#CCOc1ccc(Br)cc1C=O [Compound 3]
- inhibition at 50 µg/mL [1, 2]: 48.7 ± 1.46%
- inhibition at 100 µg/mL [1, 3]: 50.9 ± 1.52%
- melting point: 92 to 93 °C

Compound: C#CCOc1ccccc1/C=N/Nc1nc(-c2ccc(Br)cc2)cs1 [Compound 11]
- inhibition at 50 µg/mL [1, 2]: 49.1 ± 1.47%
- melting point: 144 to 146 °C

Compound: C#CCOc1ccc(/C=N/Nc2nc(-c3ccc(F)cc3)cs2)cc1OCC [Compound 17]
- inhibition at 50 µg/mL [1, 2]: 2.06 ± 0.06%
- inhibition at 100 µg/mL [1, 3]: 11.4 ± 0.34%
- melting point: 152 to 154 °C

Compound: C#CCOc1ccccc1/C=N/Nc1nc(-c2ccc([N+](=O)[O-])cc2)cs1 [Compound 12]
- inhibition at 50 µg/mL [1, 2]: 29.1 ± 0.87%
- melting point: 185 to 187 °C

Compound: C#CCOc1ccc(Br)cc1/C=N/Nc1nc(-c2ccc(Cl)c(Cl)c2)cs1 [Compound 28]
- % Inhibition ± SD ([1]; 100 µg/ml, M. Tb H37Rv): 50%
- inhibition at 50 µg/mL [1, 2]: 43.8 ± 1.31%
- inhibition at 100 µg/mL [1, 3]: 50.2 ± 1.5%
- melting point: 213 to 215 °C

Compound: C#CCOc1ccc(Br)cc1/C=N/Nc1nc(-c2ccccc2)cs1 [Compound 25]
- % Inhibition ± SD ([1]; 50 µg/ml, M. Tb H37Rv): 61.86 ± 1.85%
- inhibition at 50 µg/mL [1, 2]: 61%
- inhibition at 100 µg/mL [1, 3]: 66.2 ± 1.98%
- MIC ([1]; Mycobacterium tuberculosis, concentration giving 50% inhibition of M. Tb H37Rv): 50 µg/mL (≈ 121 µM)
- viability at 48 h, 100 μg ml^−1 (in vitro): > 75%
- melting point: 195 to 197 °C

Compound: C#CCOc1ccccc1/C=N/Nc1nc(-c2ccc(C)cc2)cs1 [Compound 14]
- inhibition at 50 µg/mL [1, 2]: 38.2 ± 1.14%

Compound: C#CCOc1ccc(/C=N/Nc2nc(-c3ccc(Cl)cc3)cs2)cc1OCC [Compound 18]
- inhibition at 50 µg/mL [1, 2]: 6.36 ± 0.19%
- inhibition at 100 µg/mL [1, 3]: 17.8 ± 0.53%

Compound: C#CCOc1ccccc1/C=N/NC(N)=S [Compound 4]
- inhibition at 50 µg/mL [1, 2]: 46.8 ± 1.4%
- antitubercular activity against M. Tb (active = 50% RLU reduction and above) ([1]; concentration not given): inactive
- melting point: 174 to 176 °C

Compound: C#CCOc1ccc(Br)cc1/C=N/Nc1nc(-c2ccc(Br)cc2)cs1 [Compound 29]
- inhibition at 50 µg/mL [1, 2]: 27.1 ± 0.81%
- inhibition at 100 µg/mL [1, 3]: 37.2 ± 1.11%
- melting point: 208 to 210 °C

Compound: NNC(=O)c1ccncc1 [INH, isoniazid, reference compound]
- inhibition at 2 µg/mL ([1]; Mycobacterium tuberculosis, at 2 µg/ml, reference drugs, M. Tb H37Rv, read-out: % Inhibition): > 99%

Compound: C#CCOc1ccccc1/C=N/Nc1nc(-c2ccc(Cl)c(Cl)c2)cs1 [Compound 10]
- inhibition at 50 µg/mL [1, 2]: 52 ± 1.56%
- viability at 48 h, 100 μg ml^−1 (in vitro): > 75%

Compound: C#CCOc1ccccc1C=O [Compound 1]
- inhibition at 50 µg/mL [1, 2]: 39.3 ± 1.17%

Compound: C#CCOc1ccccc1/C=N/Nc1nc(-c2ccc(C#N)cc2)cs1 [Compound 13]
- inhibition at 50 µg/mL [1, 2]: 54.3 ± 1.62%
- viability at 48 h, 100 μg ml^−1 (in vitro): > 75%
- melting point: 150 to 152 °C

Compound: C#CCOc1ccc(/C=N/Nc2nc(-c3ccc(C)cc3)cs2)cc1OCC [Compound 23]
- inhibition at 50 µg/mL [1, 2]: 8.72 ± 0.26%
- inhibition at 100 µg/mL [1, 3]: 10.5 ± 0.31%
- melting point: 166 to 168 °C

Compound: C#CCOc1ccc(/C=N/Nc2nc(-c3ccc(C#N)cc3)cs2)cc1OCC [Compound 22]
- inhibition at 50 µg/mL [1, 2]: 50.9 ± 1.52%
- inhibition at 100 µg/mL [1, 3]: 57.2 ± 1.71%
- viability at 48 h, 100 μg ml^−1 (in vitro): 70%

Compound: C#CCOc1ccccc1/C=N/Nc1nc(-c2ccc(Cl)cc2)cs1 [Compound 9]
- inhibition at 50 µg/mL [1, 2]: 50.8 ± 1.52%
- viability at 48 h, 100 μg ml^−1 (in vitro): > 75%
- melting point: 160 to 164 °C

Compound: C#CCOc1ccc(Br)cc1/C=N/Nc1nc(-c2ccc(C)cc2)cs1 [Compound 31]
- % Inhibition ± SD ([1]; 50 µg/ml, M. Tb H37Rv): 54%
- inhibition at 50 µg/mL [1, 2]: 54.9 ± 1.64%
- inhibition at 100 µg/mL [1, 3]: 56.3 ± 1.68%
- viability at 48 h, 100 μg ml^−1 (in vitro): 70%
- melting point: 191 to 193 °C

Compound: C#CCOc1ccc(Br)cc1/C=N/NC(N)=S [Compound 6]
- inhibition at 50 µg/mL [1, 2]: 51.2 ± 1.53%
- inhibition at 100 µg/mL [1, 3]: 56.9 ± 1.7%
- viability at 48 h, 100 μg ml^−1 (in vitro): 70%
- melting point: 204 to 206 °C

Compound: C#CCOc1ccc(/C=N/Nc2nc(-c3ccc([N+](=O)[O-])cc3)cs2)cc1OCC [Compound 21]
- inhibition at 50 µg/mL [1, 2]: 48.7 ± 1.46%
- inhibition at 100 µg/mL [1, 3]: 50.9 ± 1.52%
- melting point: 191 to 193 °C

Compound: C#CCOc1ccc(Br)cc1/C=N/Nc1nc(-c2ccc(C#N)cc2)cs1 [Compound 30]
- inhibition at 50 µg/mL [1, 2]: 43.7 ± 1.31%
- inhibition at 100 µg/mL [1, 3]: 48.7 ± 1.46%
- melting point: 199 to 201 °C

Compound: C#CCOc1ccccc1/C=N/Nc1nc(-c2ccc(OC)cc2)cs1 [Compound 15]
- inhibition at 50 µg/mL [1, 2]: 10.3 ± 0.3%
- melting point: 181 to 183 °C

Compound: C#CCOc1ccc(/C=N/Nc2nc(-c3ccc(OC)cc3)cs2)cc1OCC [Compound 24]
- inhibition at 50 µg/mL [1, 2]: 5.64 ± 0.16%
- inhibition at 100 µg/mL [1, 3]: 33 ± 0.98%
- melting point: 183 to 185 °C

Compound: C#CCOc1ccc(C=O)cc1OCC [Compound 2]
- inhibition at 50 µg/mL [1, 2]: 7.73 ± 0.23%
- inhibition at 100 µg/mL [1, 3]: 8.08 ± 0.24%
- melting point: 74 to 75 °C

Compound: C#CCOc1ccc(/C=N/Nc2nc(-c3ccc(Br)cc3)cs2)cc1OCC [Compound 20]
- inhibition at 50 µg/mL [1, 2]: 7.35 ± 0.22%
- inhibition at 100 µg/mL [1, 3]: 12.1 ± 0.36%
